Assays:
[1] = system: p21 promoter-luciferase construct in HeLa cells; assay: p21 reporter gene induction assay, HeLa cells transfected with p21 promoter-luciferase construct; assay type: cell-based; conditions: compound at 3 micromolar; 15 hours incubation; relative to SNDX-275 (=100%)
Description: The novel compounds of the present invention were tested for their ability to induce p21 gene expression using a reporter gene assay involving HeLa cells transfected with a p21 promoter-luciferase construct. The p21 promoter contained the Sp1/Sp3 binding site for HDAC but not the upstream p53 binding site. Briefly, the day before transfection, HeLa cells were seeded at 11,000 cells/well in a 96-well culture plate and incubated at 37 degrees Celsius in 5% CO2 overnight. For transfection, the medium was removed and replaced with 100 microliters/well transfection media previously prepared as follows: 5 microliters serum-free DMEM, 0.15 microliters Fugene 6 reagent, 40 ng p21-luc, 10 ng GFP were mixed gently and incubated at room temperature for 30 minutes; then 98 microliters DMEM (with 10% FBS, 1% penicillin and streptomycin) was added to the DNA:Fugene 6 reagent complex and mixed gently. After incubating the cells for 24 hours at 37 degrees Celsius in 5% CO2, fresh media and test compounds were added to the wells and the cells further incubated for 15 hours at 37 degrees Celsius in 5% CO2. Cells were lysed by adding 80 microliters/well of a cell culture lysis reagent (Promega). 50 microliters of each lysate was taken for GFP detection using an excitation wavelength of 486 nm and detection at 527 nm. 100 microliters Luciferase assay reagent (Promega) was then added to every 20 microliters cell lysate for luminometer detection. […] Induction activity for specific representative compounds can be found in Table 7.

[2] = system: SMMC-7721 liver cancer cells; assay: Antiproliferative activity, in vitro growth inhibition assay (MTS/WST), SMMC-7721; assay type: cell-based; conditions: Homo sapiens, 72 hours; for IC90: concentration required for 90% growth inhibition, read-out: GI90 (micromolar) SMMC-7721; for GI50: read-out: GI50 (micromolar) SMMC-7721
Description: The novel compounds of the present invention were tested for their ability to inhibit growth of various cancer cell lines using in vitro growth inhibition assays described below.
Cells were seeded in 96-well culture plates (200 microliters/well at different seeding concentrations depending on cell type) and incubated overnight at 37 degrees Celsius in 5% CO2. After adding compound dilutions to the cells (DMSO concentration kept below 0.5%), the cells were incubated at 37 degrees Celsius in 5% CO2 for 72 hours. The effects on proliferation were determined by addition of MTS reagent (Promega) according to the manufacturer's instruction, followed by incubation for 2 hours at 37 degrees Celsius in 5% CO2, and finally recording the absorbance at 490 nm using an ELISA plate reader.
Similar to MTS assay except that the developer is the CCK-8 reagent (Dojindo) and the plate reader is set to 450 nm absorbance.
GI50 and GI90 values against SMMC-7721 liver cancer cells for specific representative compounds can be found in Table 7.

Row | IC90 [2] [µM] | GI50 [2] [µM] | SMILES | p21 (RP3): relative induction potency compared with SNDX-275 [1] [%]
1 | 3.1 | 1 | Nc1ccccc1NC(=O)/C=C/c1ccc(C(CCN2CCOCC2)C(=O)Nc2ccc(Br)cc2)cc1 (stereo not drawn) [Example 6-2, 2-{4-[(E)-2-(2-Amino-phenylcarbamoyl)-vinyl]-phenyl}-N-(4-bromo-phenyl)-4-morpholin-4-yl-butyramide] | 233
2 | 1.5 | 0.7 | Nc1ccccc1NC(=O)/C=C/c1ccc(C(CCCN2C[C@@H]3C[C@H]2CO3)C(=O)Nc2ccc(Br)cc2)cc1 (stereo partly drawn) [Example 9-2, 2-{4-[(E)-2-(2-Amino-phenylcarbamoyl)-vinyl]-phenyl}-5-(1S,4S)-2-oxa-5-aza-bicyclo[2.2.1]hept-5-yl-pentanoic acid (4-bromo-phenyl)-amide] | 74
3 | 2.1 | 0.8 | Nc1ccccc1NC(=O)/C=C/c1ccc(C(CCCN2CCCCC2)C(=O)Nc2ccc(Br)cc2)cc1 (stereo not drawn) [Example 9-3, 2-{4-[(E)-2-(2-Amino-phenylcarbamoyl)-vinyl]-phenyl}-5-piperidin-1-yl-pentanoic acid (4-bromo-phenyl)-amide] | 305
4 | 4.9 | 1.4 | CC(C)c1ccc(NC(=O)C(CCCN2C[C@@H]3C[C@H]2CO3)c2ccc(/C=C/C(=O)Nc3ccccc3N)cc2)cc1 (stereo partly drawn) [Example 9-4, 2-{4-[(E)-2-(2-Amino-phenylcarbamoyl)-vinyl]-phenyl}-5-(1S,4S)-2-oxa-5-aza-bicyclo[2.2.1]hept-5-yl-pentanoic acid (4-isopropyl-phenyl)-amide] | 155
5 | 3.2 | 1.1 | Nc1ccccc1NC(=O)/C=C/c1ccc(C(CCCN2CCCC(O)C2)C(=O)Nc2ccc(Br)cc2)cc1 (stereo not drawn) [Example 9-5, 2-{4-[(E)-2-(2-Amino-phenylcarbamoyl)-vinyl]-phenyl}-5-(3-hydroxy-piperidin-1-yl)-pentanoic acid (4-bromo-phenyl)-amide] | 127
6 | 10.5 | 3.5 | Nc1ccccc1NC(=O)c1ccc(CNC(=O)OCc2cccnc2)cc1 [SNDX-275, reference compound] | 100

Second part, the compound before the results:

Row | SMILES | IC90 [2] [µM] | GI50 [2] [µM] | p21 (RP3): relative induction potency compared with SNDX-275 [1] [%]
7 | Nc1ccccc1NC(=O)/C=C/c1ccc(C(CCN2C[C@@H]3C[C@H]2CO3)C(=O)Nc2ccc(Br)cc2)cc1 (stereo partly drawn) [Example 6, 2-{4-[(E)-2-(2-Amino-phenylcarbamoyl)-vinyl]-phenyl}-N-(4-bromo-phenyl)-4-(1S,4S)-2-oxa-5-aza-bicyclo[2.2.1]hept-5-yl-butyramide] | 2.7 | 0.8 | 212
8 | Nc1ccccc1NC(=O)/C=C/c1ccc(C(CCCN2CCOCC2)C(=O)Nc2ccc(Br)cc2)cc1 (stereo not drawn) [Example 9, 2-{4-[(E)-2-(2-Amino-phenylcarbamoyl)-vinyl]phenyl}-5-morpholin-4-yl-pentanoic acid (4-bromo-phenyl)-amide] | 2.9 | 1.3 | 253
9 | CN1CCCC1CCC(C(=O)Nc1ccc(Br)cc1)c1ccc(/C=C/C(=O)Nc2ccccc2N)cc1 (stereo not drawn) [Example 25, 2-{4-[(E)-2-(2-Amino-phenylcarbamoyl)-vinyl]-phenyl}-N-(4-bromo-phenyl)-4-(1-methyl-pyrrolidin-2-yl)-butyramide] | 2.5 | 0.8 | 199
10 | CCN(CC)C1CCN(CC(C(=O)Nc2ccc(Cl)cc2)c2ccc(/C=C/C(=O)Nc3ccccc3N)cc2)C1 (stereo not drawn) [Example 31, (E)-N-(2-Amino-phenyl)-3-{4-[1-(4-chloro-phenylcarbamoyl)-2-(3-diethylamino-pyrrolidin-1-yl)-ethyl]phenyl}-acrylamide] | 3.3 | 0.9 | 243
